Data set [1] addresses Voltage-gated potassium channel, KQT; KCNQ2(Kv7.2)/KCNQ3(Kv7.3) (Homo sapiens, UniProt O43525+O43526). Nature of the data set: Agonist activity at human KCNQ2/3 expressed in HEK293 cells by FLIPR based thallium influx assay. Type of data set: cell-based.
Data set [2] deals with Voltage-gated potassium channel, KQT; KCNQ2(Kv7.2)/KCNQ3(Kv7.3) (Homo sapiens) (UniProt O43526+O43525). Nature of the data set: Agonist activity at human KCNQ2/3 expressed in HEK293 cells by FLIPR based thallium influx assay relative to retigabine. Type of data set: cell-based.
Data set [3] in a line: Plasma clearance in rat at 1 mg/kg. iv. Type of data set: ADME, organism-based.
Data set [4] is described as follows: Half life in rat at 1 mg/kg, iv. Particulars: in vivo. Type of data set: ADME, organism-based.
Data set [5] can be described thus: Oral bioavailability in rat at 1 mg/kg. Type of data set: ADME, organism-based. Particulars: in vivo.
The nature of data set [6]: AUC in rat at 1 mg/kg, po. Type of data set: ADME, organism-based. Particulars: in vivo.
Data set [7] in a line: Ratio of drug level in brain to plasma in rat. In kind it is ADME. Particulars: read-out: BPR.
Data set [8] has as its system Rattus norvegicus. Description: Antiallodynic activity in rat model of capsaicin-induced mechanical hyperalgesia assessed as increase in paw withdrawal threshold at 3 mg/kg, ip administered 30 mins before capsaicin addition relative to control. In kind it is functional.
In data set [9] the test system is Rattus norvegicus. Nature of the data set: Antiallodynic activity in rat model of capsaicin-induced mechanical hyperalgesia assessed as increase in paw withdrawal threshold at 10 mg/kg, ip administered 30 mins before capsaicin addition relative to control. Type of data set: functional.
In data set [10] the test system is Rattus norvegicus. Nature of the data set: Antiallodynic activity in rat model of capsaicin-induced mechanical hyperalgesia assessed as increase in paw withdrawal threshold at 30 mg/kg, ip administered 30 mins before capsaicin addition relative to control. In kind it is functional.
Data set [11] deals with Rattus norvegicus. Nature of the data set: Antiallodynic activity in ip dosed rat model of capsaicin-induced mechanical hyperalgesia assessed as increase in paw withdrawal threshold administered 30 mins before capsaicin addition. In kind it is functional, organism-based.
The subject of data set [12] is Rattus norvegicus. Nature of the data set: Antiallodynic activity in rat model of capsaicin-induced mechanical hyperalgesia assessed as increase in paw withdrawal threshold at 100 mg/kg, ip administered 30 mins before capsaicin addition relative to control. In kind it is functional.

Consider 28 molecules from ChEMBL document CHEMBL4351029, “Design and evaluation of pyrazolopyrimidines as KCNQ channel modulators” (Bioorg Med Chem Lett, 2019).

By EC50 is commonly meant the concentration giving half of the maximal effect. For orientation: Emax means the greatest response seen or fitted, relative to the assay's reference. By clearance is commonly meant a measure of how efficiently the substance is removed, as volume per time. Low values mean inefficient removal, high ones efficient removal. Usually half-life stands for the time in which the quantity being followed falls by half. A higher half-life goes with slow decline. What is called bioavailability is dose-corrected exposure relative to a reference, in per cent. As a reminder, the AUC is the area under the concentration-time curve, a measure of exposure.

Structures are written as SMILES.

Chain of Voltage-gated potassium channel, KQT; KCNQ2(Kv7.2)/KCNQ3(Kv7.3) (O43526 whole entry): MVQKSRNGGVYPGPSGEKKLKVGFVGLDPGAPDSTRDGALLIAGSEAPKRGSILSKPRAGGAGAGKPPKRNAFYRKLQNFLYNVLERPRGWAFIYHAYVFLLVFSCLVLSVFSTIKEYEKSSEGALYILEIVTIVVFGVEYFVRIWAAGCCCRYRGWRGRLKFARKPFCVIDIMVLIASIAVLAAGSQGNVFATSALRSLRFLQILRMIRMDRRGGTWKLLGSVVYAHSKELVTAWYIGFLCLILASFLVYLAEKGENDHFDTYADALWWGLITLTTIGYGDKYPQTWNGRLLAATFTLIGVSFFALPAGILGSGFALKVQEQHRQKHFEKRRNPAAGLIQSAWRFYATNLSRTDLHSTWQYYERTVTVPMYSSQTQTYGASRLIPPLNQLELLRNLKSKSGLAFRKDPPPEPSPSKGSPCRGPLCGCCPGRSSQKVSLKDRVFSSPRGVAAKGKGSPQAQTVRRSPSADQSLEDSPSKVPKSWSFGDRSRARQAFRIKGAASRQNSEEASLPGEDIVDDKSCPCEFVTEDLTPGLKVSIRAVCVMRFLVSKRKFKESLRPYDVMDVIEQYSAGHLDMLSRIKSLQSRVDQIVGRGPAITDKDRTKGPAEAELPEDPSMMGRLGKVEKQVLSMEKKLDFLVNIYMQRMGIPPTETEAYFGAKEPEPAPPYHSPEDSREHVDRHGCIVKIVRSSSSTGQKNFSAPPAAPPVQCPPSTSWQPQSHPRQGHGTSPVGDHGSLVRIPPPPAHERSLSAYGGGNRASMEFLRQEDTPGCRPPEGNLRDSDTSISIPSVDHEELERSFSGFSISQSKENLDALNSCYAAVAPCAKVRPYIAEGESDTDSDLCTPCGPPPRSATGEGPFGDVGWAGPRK
Chain of Voltage-gated potassium channel, KQT; KCNQ2(Kv7.2)/KCNQ3(Kv7.3) (O43525 whole entry): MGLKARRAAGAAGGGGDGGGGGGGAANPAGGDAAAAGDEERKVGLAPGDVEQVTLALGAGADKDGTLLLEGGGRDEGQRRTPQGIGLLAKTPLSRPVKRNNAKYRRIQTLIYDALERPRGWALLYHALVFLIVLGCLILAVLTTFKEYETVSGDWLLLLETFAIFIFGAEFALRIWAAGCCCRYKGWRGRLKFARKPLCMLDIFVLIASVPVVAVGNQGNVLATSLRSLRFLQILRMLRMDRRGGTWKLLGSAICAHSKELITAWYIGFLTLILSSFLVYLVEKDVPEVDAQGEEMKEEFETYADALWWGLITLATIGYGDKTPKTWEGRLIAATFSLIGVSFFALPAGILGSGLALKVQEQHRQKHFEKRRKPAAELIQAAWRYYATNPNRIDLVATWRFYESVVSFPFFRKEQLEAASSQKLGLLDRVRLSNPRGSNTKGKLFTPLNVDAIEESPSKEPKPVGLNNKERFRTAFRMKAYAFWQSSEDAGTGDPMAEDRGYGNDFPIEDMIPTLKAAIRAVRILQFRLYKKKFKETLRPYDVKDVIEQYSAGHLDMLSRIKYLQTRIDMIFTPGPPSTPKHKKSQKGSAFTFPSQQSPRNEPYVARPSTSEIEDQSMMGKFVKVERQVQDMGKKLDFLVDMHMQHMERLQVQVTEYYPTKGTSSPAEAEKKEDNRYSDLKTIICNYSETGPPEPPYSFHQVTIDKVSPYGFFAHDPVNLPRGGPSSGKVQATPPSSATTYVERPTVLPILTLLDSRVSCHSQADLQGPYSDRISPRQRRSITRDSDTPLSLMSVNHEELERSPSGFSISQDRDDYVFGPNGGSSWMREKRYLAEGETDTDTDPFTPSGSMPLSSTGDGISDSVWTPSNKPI

Regarding `Cc1cc(-c2c(NC(=O)CCC3CCCC3)nn3cccnc23)ccc1F`, the EC50 in [1] came out at 180 nM. In [2], this molecule registered an Emax of 169%.
`O=C(CCC1CCCC1)Nc1nn2cccnc2c1-c1ccc(C(F)(F)F)cc1` had an EC50 in data set [1] of 50 nM.
`Cc1cnc2c(-c3ccc(F)c(C)c3)c(NC(=O)CC(C)(C)C)nn2c1` showed an EC50 in data set [1] of 590 nM. Also, in data set [2], the Emax amounted to 159%.
`O=C(CCC1CCCC1)Nc1nn2cccnc2c1-c1ccc(F)cc1` displayed an EC50 in [1] of 140 nM.
Turning to `Cc1cc(C)n2nc(NC(=O)CC3CCCC3)c(-c3ccc(F)c(C)c3)c2n1`, in data set [1], a half-maximal response (EC50) required 70 nM. The Emax in data set [2] was determined as 165%.
Regarding `O=C(CC1CCCC1)Nc1nn2cccnc2c1-c1ccc(OC(F)(F)F)cc1`, in data set [1], the EC50 came out at 190 nM. Moreover, the Emax in data set [2] stood at 88%.
In the same order, the values of `O=C(Nc1nn2cccnc2c1-c1ccc(F)cc1)C1CCCC1` are over 32000 nM and 20%.
With `CC(C)(C)CC(=O)Nc1nn2c(C(C)(C)C)ccnc2c1-c1ccc(OC(F)(F)F)cc1`, the EC50 in [1] was over 32000 nM.
Molecule `CCOC(=O)Nc1ccc(NCc2ccc(F)cc2)cc1N` [EZOGABINE] gave an EC50 in data set [1] of 4380 nM. Further, the Emax in data set [2] was determined as 99%.
`CC(C)(C)CC(=O)Nc1nn2cccnc2c1-c1ccccc1` had an Emax in [2] of 26%.
Regarding `Cc1cnc2c(-c3ccc(F)c(C)c3)c(NC(=O)CC3CCCC3)nn2c1`, the EC50 in data set [1] turned out to be 140 nM. The same molecule showed an Emax in data set [2] of 168%.
For the molecule `Cc1cnc2c(-c3ccc(F)c(C)c3)c(NC(=O)CCC3CCCC3)nn2c1`, it took 80 nM to reach a half-maximal effect in data set [1] (EC50).
With `Cc1cc(C)n2nc(NC(=O)CC(C)(C)C)c(-c3ccc(F)c(C)c3)c2n1`, in data set [1], the response was half-maximal at 50 nM (EC50).
Regarding `CC(C)(C)CC(=O)Nc1nn2cccnc2c1-c1ccc(OC(F)(F)F)cc1`, in [1], it took 410 nM to reach a half-maximal effect (EC50). This molecule also gave a clearance in data set [3] of 13.3 mL/min/kg. In addition, in data set [4], the half-life is 1.9 h. In addition, the bioavailability in data set [5] amounted to 56%. For the same molecule, the AUC in data set [6] turned out to be 706 ng·h/mL. For the same molecule, the Kp in [7] was found to be 3.8. The Activity in the data set on Rattus norvegicus [8] is 10%; in the data set on Rattus norvegicus [9], 26%; in the data set on Rattus norvegicus [10], 52%; in the data set with Rattus norvegicus [11], “Dose-dependent effect”.
`CC(C)(C)CC(=O)Nc1nn2cccnc2c1-c1ccc(C(F)(F)F)cc1` gave an EC50 in [1] of 140 nM. Besides, in [2], the Emax was found to be 113%.
In the same order, the values of `CC(C)(C)c1ccnc2c(NC(=O)Cc3cc(F)cc(F)c3)cnn12` are 910 nM and 149%.
Regarding `CC(C)(C)CC(=O)Nc1nn2cccnc2c1-c1ccc(F)cc1`, the EC50 in data set [1] was 6800 nM.
On to `Cc1cc(-c2c(NC(=O)CC3CCCC3)nn3cccnc23)ccc1F`, for which a half-maximal response in [1] (EC50) required 1170 nM. Besides, in data set [2], the Emax was 139%.
Turning to `O=C(CC1CCCC1)Nc1nn2cccnc2c1-c1ccc(C(F)(F)F)cc1`, the Emax in data set [2] is 28%.
`O=C(CCC1CCCC1)Nc1nn2cccnc2c1-c1ccc(OC(F)(F)F)cc1` returned an EC50 in [1] of 310 nM.
Molecule `Cc1cc(-c2c(NC(=O)CC(C)(C)C)nn3cccnc23)ccc1F` came in with an EC50 in [1] of 2310 nM. The Emax in data set [2] was determined as 135%.
Turning to `O=C(CCC1CCCCC1)Nc1nn2cccnc2c1-c1ccccc1`, in data set [1], the EC50 is 130 nM.
Turning to `NCC1(CC(=O)O)CCCCC1` [GABAPENTIN], the Activity in the data set on Rattus norvegicus [12] came out at 70%.
As for `O=C(Nc1nn2cccnc2c1-c1ccccc1)C1CCCCC1`, the Emax in data set [2] came to 8%.
For `CCOC(=O)Nc1ccc(NCc2ccc(F)cc2)nc1N` [FLUPIRTINE], in data set [1], the EC50 is 560 nM. In [2], the Emax came out at 112%.
In the same order, the values of `O=C(CC1CCCC1)Nc1nn2cccnc2c1-c1ccc(F)cc1` are 1000 nM and 100%.
In the same order, the values of `Cc1cc(C)n2nc(NC(=O)CCC3CCCC3)c(-c3ccc(F)c(C)c3)c2n1` are 70 nM and 205%.
In the same order, the values of `O=C(CC1CCCCC1)Nc1nn2cccnc2c1-c1ccccc1` are 290 nM and 133%.
